Measurements taken from patent US8741963B2, “S1P receptor modulators for treating multiple sclerosis” (Novartis AG, priority 2006, dated 2014).

System: Relapsing Experimental Autoimmune Encephalomyelitis (EAE)
Assay: Relapsing Experimental Autoimmune Encephalomyelitis (EAE), vascular casts quantitated by micro computer tomography
Format: in vivo, female Lewis rats
Conditions: rat relapsing EAE
From the text: In Vivo: Relapsing Experimental Autoimmune Encephalomyelitis (EAE)
Disease is induced in female Lewis rats by immunization with guinea pig spinal cord tissue emulsified in complete Freund's adjuvant. […] On day 26 rats are thoracectomized after having been deeply anesthetized with Isoflurane (3%, 20 L/min) and perfused through the left ventricle of the heart. The left ventricle is punctured with a 19 gauge needle from a winged infusion set (SV-19BLK; Termudo, Elkton, Md.), which is connected to an airtight pressurized syringe containing the rinsing solution (NaCl 0.9% with 250,000 U/I heparin at 35° C.). The right atrium is punctured to provide outflow, and the perfusate is infused under a precise controlled pressure of 120 mm Hg. The perfusion is continued for 5 min (at a constant rate of 20 ml/min) followed by a pre-fixation solution (2% performaldehyde in PBS at 35° C.). Finally, up to 30 ml of polyurethane resin (PUII4; Vasqtec, Zürich, Switzerland) is infused at the same rate. After 48 h, the resin-filled brain and spinal cord are excised from the animal and the soft tissue removed by maceration in 7.5% KOH during 24 hr at 50° C. The casts are then thoroughly cleaned with and stored in distilled water before drying by lyophilization. These vascular casts are quantitated using micro computer tomography.

[1] = hydrochloride salt form, daily 0.3 mg/kg p.o.

CCCCCCCCc1ccc(CCC(N)(CO)CO)cc1.Cl [Compound A, 2-amino-2-[2-(4-octylphenyl)ethyl]propane-1,3-diol]
disease-associated neo-angiogenesis (dose of from 0.1 to 20 mg/kg p.o.): significantly blocks | disease-associated angiogenesis [1]: fully blocks | relapse phases [1]: completely inhibits | effect on disease-associated angiogenesis and relapse phases, intermittent administration (hydrochloride salt form, p.o. 0.3 mg/kg every 2nd or 3rd day or once a week): The same effect is obtained
